According to ChEMBL document CHEMBL3044529, “7-Hydroxy-coumarin derivatives: synthesis, characterization and preliminary antimicrobial activities” (2011):
Values after ≈ are worked out from the molar mass of the structure shown.

Key:
Assay type in all cases: functional
[1] = tested on: Pseudomonas aeruginosa; experiment: Antimicrobial activity against Pseudomonas aeruginosa by macro dilution test
[2] = tested on: Streptococcus pyogenes; experiment: Antimicrobial activity against Streptococcus pyogenes by macro dilution test
[3] = tested on: Staphylococcus aureus; experiment: Antimicrobial activity against Staphylococcus aureus by macro dilution test
[4] = tested on: Candida parapsilosis; experiment: Antimicrobial activity against Candida parapsilosis by macro dilution test; conditions: Lodderomyces parapsilosis
[5] = tested on: Candida albicans; experiment: Antimicrobial activity against Candida albicans by macro dilution test
[6] = tested on: Cryptococcus neoformans; experiment: Antimicrobial activity against Cryptococcus neoformans by macro dilution test
[7] = tested on: Salmonella typhimurium; experiment: Antimicrobial activity against Salmonella enterica subsp. enterica serovar Typhimurium by macro dilution test
[8] = tested on: Bacillus subtilis; experiment: Antimicrobial activity against Bacillus subtilis by macro dilution test
[9] = tested on: Pichia kudriavzevii; experiment: Antimicrobial activity against Pichia kudriavzevii by macro dilution test
[10] = tested on: Escherichia coli; experiment: Antimicrobial activity against Escherichia coli by macro dilution test

| Compound | MIC [1] [µg/mL] | MIC [2] [µg/mL] | MIC [3] [µg/mL] | MIC [4] [µg/mL] | MIC [5] [µg/mL] | MIC [6] [µg/mL] | MIC [7] [µg/mL] | MIC [8] [µg/mL] | MIC [9] [µg/mL] | MIC [10] [µg/mL] |
| --- | --- | --- | --- | --- | --- | --- | --- | --- | --- | --- |
| CCCCC/C=C\CC[C@H](O)CCCCCCCC(=O)Oc1ccc2ccc(=O)oc2c1 | 128 (≈ 289 µM) | 32 (≈ 72.3 µM) | 32 (≈ 72.3 µM) | 16 (≈ 36.2 µM) | 2 (≈ 4.52 µM) | 8 (≈ 18.1 µM) | 64 (≈ 145 µM) | 64 (≈ 145 µM) | 256 (≈ 578 µM) | 32 (≈ 72.3 µM) |
| CCCCCC[C@@H](O)C/C=C\CCCCCCCC(=O)Oc1ccc2ccc(=O)oc2c1 | 128 (≈ 289 µM) | 64 (≈ 145 µM) | 32 (≈ 72.3 µM) | 16 (≈ 36.2 µM) | 4 (≈ 9.04 µM) | 16 (≈ 36.2 µM) | 64 (≈ 145 µM) | 64 (≈ 145 µM) | 256 (≈ 578 µM) | 64 (≈ 145 µM) |
| CCCCCCCC/C=C\CCCCCCCC(=O)Oc1ccc2ccc(=O)oc2c1 | 128 (≈ 300 µM) | 128 (≈ 300 µM) | 128 (≈ 300 µM) | 64 (≈ 150 µM) | 8 (≈ 18.8 µM) | 32 (≈ 75 µM) | 128 (≈ 300 µM) | 64 (≈ 150 µM) | 512 (≈ 1200 µM) | 128 (≈ 300 µM) |
| C=CCCCCCCCCC(=O)Oc1ccc2ccc(=O)oc2c1 | 128 (≈ 390 µM) | 64 (≈ 195 µM) | 128 (≈ 390 µM) | 32 (≈ 97.4 µM) | 4 (≈ 12.2 µM) | 16 (≈ 48.7 µM) | 64 (≈ 195 µM) | 64 (≈ 195 µM) | 256 (≈ 780 µM) | 128 (≈ 390 µM) |
| O=C(N[C@H](CO)[C@H](O)c1ccc([N+](=O)[O-])cc1)C(Cl)Cl [CHLORAMPHENICOL] | 64 (≈ 198 µM) | 32 (≈ 99 µM) | 32 (≈ 99 µM) | – | – | – | 32 (≈ 99 µM) | 32 (≈ 99 µM) | – | 32 (≈ 99 µM) |
| OC(Cn1cncn1)(Cn1cncn1)c1ccc(F)cc1F [FLUCONAZOLE] | – | – | – | 8 (≈ 26.1 µM) | 1 (≈ 3.27 µM) | 8 (≈ 26.1 µM) | – | – | 64 (≈ 209 µM) | – |
